The test deals with L1210 leukemia ip in BDF1 mice, survival T/C. Briefly: NCI In Vivo Anticancer Drug Screen. Data for tumor model L1210 Leukemia (intraperitoneal) in B6D2F1 (BDF1) mice. As to conditions: endpoint: mean survival time, higher = longer survival. The method in brief:
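In this screen, tumor-bearing mice given compound are compared to those given vehicle, and their survival values are reported as a treated-to-control quotient.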

[1] abbreviates: dose: 100.0 mg/kg/injection, schedule: Q01DX001 (ip), vehicle: saline.
The mark [2] stands for this setting: dose: 200.0 mg/kg/injection, schedule: Q01DX001 (ip), vehicle: saline.
[3] abbreviates: dose: 75.0 mg/kg/injection, schedule: Q01DX001 (ip), vehicle: other.
Where [4] appears, read: dose: 150.0 mg/kg/injection, schedule: Q01DX001 (ip), vehicle: other.
Setting [5] is: dose: 300.0 mg/kg/injection, schedule: Q01DX001 (ip), vehicle: other.
The mark [6] stands for this setting: dose: 100.0 mg/kg/injection, schedule: Q01DX009 (ip), vehicle: saline.
Setting [7] is: dose: 100.0 mg/kg/injection, schedule: Q04DX003 (ip), vehicle: saline.
Where [8] appears, read: dose: 200.0 mg/kg/injection, schedule: Q04DX003 (ip), vehicle: saline.
Setting [9] is: dose: 400.0 mg/kg/injection, schedule: Q04DX003 (ip), vehicle: saline.
Where [10] appears, read: dose: 25.0 mg/kg/injection, schedule: Q04DX003 (ip), vehicle: saline with Tween-80.

We go through 19 compounds from PubChem BioAssay AID248 (DTP/NCI, 2004).

Where “and” joins values, the source holds several entries; their conditions need not be identical. Equal values may be shown once. Toxic doses and inconclusive results are not listed.

`c1ccc([P+](c2ccccc2)(c2ccccc2)c2ccc([P+](c3ccccc3)(c3ccccc3)c3ccccc3)cc2)cc1`: the T/C was 106 % of control (dose: 3.13 mg/kg/injection, schedule: Q04DX003 (ip), vehicle: saline); 109 % of control (dose: 6.25 mg/kg/injection, schedule: Q04DX003 (ip), vehicle: saline); 93 % of control and 102 % of control (dose: 12.5 mg/kg/injection, schedule: Q04DX003 (ip), vehicle: saline).

For the compound `CN(C)c1nc2nc[nH]c2c(=S)n1C`, the T/C by setting is: under setting [1], 97 % of control; under setting [2], 97 % of control; (dose: 400.0 mg/kg/injection, schedule: Q01DX001 (ip), vehicle: saline) 95 % of control.

As for `CCCCN(CCCC)CCNc1cc(C)nc(/N=C(\N)Nc2ccc(Cl)c(Cl)c2)n1`, the T/C (dose: 38.0 mg/kg/injection, schedule: Q01DX009 (ip), vehicle: other) is 91 % of control; the T/C (dose: 38.0 mg/kg/injection, schedule: Q04DX003 (ip), vehicle: other) is 104 % of control; the T/C under setting [3] was 101 % of control; the T/C (dose: 75.0 mg/kg/injection, schedule: Q01DX009 (ip), vehicle: other) is 105 % of control; the T/C (dose: 75.0 mg/kg/injection, schedule: Q04DX003 (ip), vehicle: other) was 114 % of control; the T/C under setting [4] is 103 % of control. For the same compound, the T/C is 87 % of control (dose: 150.0 mg/kg/injection, schedule: Q04DX003 (ip), vehicle: other) and 95 % of control under setting [5].

For `Nc1ccccc1CCCC(=O)O`, the T/C runs as follows: under setting [6], 95 % of control; under setting [7], 104 % of control; (dose: 200.0 mg/kg/injection, schedule: Q01DX009 (ip), vehicle: saline) 90 % of control; under setting [8], 98 % of control; (dose: 400.0 mg/kg/injection, schedule: Q01DX009 (ip), vehicle: saline) 105 % of control; under setting [9], 93 % of control.

As to `O=C(O)Cc1csc2ccccc12`, the T/C is 100 % of control (dose: 100.0 mg/kg/injection, schedule: Q01DX001 (ip), vehicle: other); 97 % of control (dose: 200.0 mg/kg/injection, schedule: Q01DX001 (ip), vehicle: other); 103 % of control (dose: 400.0 mg/kg/injection, schedule: Q01DX001 (ip), vehicle: other).

On to `O=C(Nc1ccccc1)c1cc(Cl)ccn1`, for which the T/C runs as follows: (dose: 100.0 mg/kg/injection, schedule: Q01DX001 (ip), vehicle: carboxymethylcellulose (CMC)) 100 % of control; (dose: 200.0 mg/kg/injection, schedule: Q01DX001 (ip), vehicle: carboxymethylcellulose (CMC)) 97 % of control; (dose: 400.0 mg/kg/injection, schedule: Q01DX001 (ip), vehicle: carboxymethylcellulose (CMC)) 97 % of control.

With `Cc1cc([N+](=O)[O-])cc(C)c1OC(=O)c1ccc(N=C(N)N)cc1`, the T/C (dose: 3.12 mg/kg/injection, schedule: Q01DX009 (ip), vehicle: saline) was 94 % of control; the T/C (dose: 6.25 mg/kg/injection, schedule: Q01DX009 (ip), vehicle: saline) was 93 % of control; the T/C (dose: 12.5 mg/kg/injection, schedule: Q01DX009 (ip), vehicle: saline) was 103 % of control; the T/C (dose: 25.0 mg/kg/injection, schedule: Q01DX009 (ip), vehicle: saline) was 97 % of control and 107 % of control; the T/C (dose: 25.0 mg/kg/injection, schedule: Q04DX003 (ip), vehicle: saline) is 111 % of control; the T/C (dose: 50.0 mg/kg/injection, schedule: Q01DX009 (ip), vehicle: saline) was 103 % of control and 92 % of control. For the same compound, the T/C (dose: 50.0 mg/kg/injection, schedule: Q04DX003 (ip), vehicle: saline) is 105 % of control and the T/C under setting [7] is 100 % of control.

As to `CC(=O)c1ccc(OC(=O)Nc2ccc(C)cc2)cc1`, the T/C is, setting by setting: (dose: 100.0 mg/kg/injection, schedule: Q01DX009 (ip), vehicle: Klucel (hydroxypropylcellulose) (HPC)) 109 % of control; (dose: 200.0 mg/kg/injection, schedule: Q01DX009 (ip), vehicle: Klucel (hydroxypropylcellulose) (HPC)) 105 % of control; (dose: 400.0 mg/kg/injection, schedule: Q01DX009 (ip), vehicle: Klucel (hydroxypropylcellulose) (HPC)) 88 % of control.

As to `COc1cc(C=Nc2ccc3ccccc3c2)ccc1N(CCCl)CCCl`, the T/C reads like this: (dose: 0.9 mg/kg/injection, schedule: Q01DX009 (ip), vehicle: carboxymethylcellulose (CMC)) 102 % of control; (dose: 1.3 mg/kg/injection, schedule: Q01DX009 (ip), vehicle: carboxymethylcellulose (CMC)) 118 % of control; (dose: 1.5 mg/kg/injection, schedule: Q01DX009 (ip), vehicle: carboxymethylcellulose (CMC)) 108 % of control; (dose: 3.0 mg/kg/injection, schedule: Q01DX009 (ip), vehicle: carboxymethylcellulose (CMC)) 114 % of control and 117 % of control; (dose: 6.0 mg/kg/injection, schedule: Q01DX009 (ip), vehicle: carboxymethylcellulose (CMC)) 122 % of control; (dose: 20.0 mg/kg/injection, schedule: Q01DX009 (ip), vehicle: carboxymethylcellulose (CMC)) 119 % of control. Further, the T/C reads like this: (dose: 30.0 mg/kg/injection, schedule: Q01DX009 (ip), vehicle: carboxymethylcellulose (CMC)) 100 % of control; (dose: 40.0 mg/kg/injection, schedule: Q01DX001 (ip), vehicle: carboxymethylcellulose (CMC)) 151 % of control; (dose: 75.0 mg/kg/injection, schedule: Q01DX001 (ip), vehicle: carboxymethylcellulose (CMC)) 119 % of control.

Regarding `Clc1ccc(-c2ncc3cnccn23)cc1Cl`, the T/C by setting is: (dose: 25.0 mg/kg/injection, schedule: Q01DX009 (ip), vehicle: saline with Tween-80) 92 % of control; under setting [10], 96 % of control; (dose: 50.0 mg/kg/injection, schedule: Q01DX009 (ip), vehicle: saline with Tween-80) 96 % of control; (dose: 50.0 mg/kg/injection, schedule: Q04DX003 (ip), vehicle: saline with Tween-80) 103 % of control; (dose: 100.0 mg/kg/injection, schedule: Q04DX003 (ip), vehicle: saline with Tween-80) 94 % of control and 96 % of control.

For `C=C1CCCC(O)CCC1`, the T/C runs as follows: under setting [3], 102 % of control; under setting [4], 98 % of control; under setting [5], 96 % of control.

On to `CN(C)CC/C=C1\c2ccccc2CCSc2ccccc21`, for which the T/C runs as follows: (dose: 25.0 mg/kg/injection, schedule: Q04DX003 (ip), vehicle: Klucel (hydroxypropylcellulose) (HPC)) 100 % of control; (dose: 50.0 mg/kg/injection, schedule: Q04DX003 (ip), vehicle: Klucel (hydroxypropylcellulose) (HPC)) 100 % of control; (dose: 100.0 mg/kg/injection, schedule: Q04DX003 (ip), vehicle: Klucel (hydroxypropylcellulose) (HPC)) 98 % of control.

On to `CC12CC3CC(C1)CC(CC(N)=O)(C3)C2`, for which the T/C reads like this: under setting [7], 98 % of control; under setting [8], 103 % of control; under setting [9], 98 % of control.

In the case of `COc1cc2c(c(OC)c1OC)CCc1cnoc1-2`, the T/C by setting is: (dose: 100.0 mg/kg/injection, schedule: Q04DX002 (ip), vehicle: Klucel (hydroxypropylcellulose) (HPC)) 97 % of control; (dose: 200.0 mg/kg/injection, schedule: Q04DX002 (ip), vehicle: Klucel (hydroxypropylcellulose) (HPC)) 112 % of control; (dose: 400.0 mg/kg/injection, schedule: Q04DX002 (ip), vehicle: Klucel (hydroxypropylcellulose) (HPC)) 91 % of control.

For `O=C1c2ccccc2-c2ccccc2C1(Cl)Cl`, the T/C (dose: 75.0 mg/kg/injection, schedule: Q01DX001 (ip), vehicle: saline) was 105 % of control.

For `C1=CC2(OCCO2)C2CC=CC3(OCCO3)C2C1` (stereo unspecified), the T/C runs as follows: under setting [6], 113 % of control; under setting [7], 109 % of control; under setting [8], 98 % of control; under setting [9], 109 % of control.

As for `O=C(c1ccccc1)C1C(c2ccccc2)OP(c2ccccc2)(c2ccccc2)(c2ccccc2)C1c1ccccc1` (stereo unspecified), the T/C (dose: 6.25 mg/kg/injection, schedule: Q04DX003 (ip), vehicle: saline with Tween-80) was 102 % of control; the T/C (dose: 12.5 mg/kg/injection, schedule: Q01DX009 (ip), vehicle: saline with Tween-80) is 97 % of control; the T/C under setting [10] is 94 % of control.

For `O=C(O)c1cccc(C#Cc2ccccc2)c1`, the T/C reads like this: (dose: 100.0 mg/kg/injection, schedule: Q01DX001 (ip), vehicle: Klucel (hydroxypropylcellulose) (HPC)) 97 % of control; (dose: 200.0 mg/kg/injection, schedule: Q01DX001 (ip), vehicle: Klucel (hydroxypropylcellulose) (HPC)) 103 % of control.

For `O=C(/C=C/c1ccccc1)c1ccc(O)cc1O`, the T/C (dose: 50.0 mg/kg/injection, schedule: Q01DX001 (ip), vehicle: saline) was 97 % of control; the T/C under setting [1] is 95 % of control; the T/C under setting [2] is 97 % of control.
